The nature of this data set: from Savola, J.; Ruskoaho, H.; Salonen, J.; Puurunen, J.; Karjalainen, A.; Kurkela, K.; Karki, N. (1988). Cardiovascular and sedative alpha-adrenoceptor effects of detomidine-like arylalkylimidazoles and …. To be noted: pH 7.4.

The record followed here is the SangsterLogP compilation.

Usually logD stands for lipophilicity at a set pH, counting ionised and neutral species. Low readings indicate a more hydrophilic compound, high ones a more lipophilic compound. Take `Cc1ccc(Cc2c[nH]cn2)c(C)c1`: the logD is 2.52.

In turn, `Cc1cccc(C)c1CCn1ccnc1` displayed a logD of 2.51.

For the compound `Cc1cccc(C)c1Cc1ccccn1`, the logD was 3.48.

In turn, `Cc1cccc(C)c1CCCCc1c[nH]cn1` displayed a logD of 3.3.

`Cc1ccc(C)c(Cc2c[nH]cn2)c1`: the logD is 2.54.

In turn, `Cc1cccc(Cc2c[nH]cn2)c1` had a logD of 2.21.

Take `Cc1cc(C)cc(Cc2c[nH]cn2)c1`: the logD stood at 2.34.

Take `Cc1cccc(C)c1CCCc1c[nH]cn1`: the logD amounted to 2.87.

`Cc1cccc(C)c1-c1c[nH]cn1` displayed a pH-dependent lipophilicity (logD) of 2.38.

Take `Cc1cccc(C)c1Cc1cnc[nH]1`: the log distribution coefficient (logD) came out at 2.54.

With `Cc1cccc(C)c1CCc1c[nH]cn1`, the logD was 2.73.

For the compound `Cc1ccc(Cc2c[nH]cn2)cc1C`, the logD was 2.54.

`Cc1cccc(C)c1/C=C/c1c[nH]cn1` had a pH-dependent lipophilicity (logD) of 3.35.

The compound `Cc1ccccc1Cc1c[nH]cn1` showed a log distribution coefficient (logD) of 2.13.

`Cc1cccc(C)c1CCc1ncc[nH]1` displayed a logD of 2.2.

Compound `Cc1cccc(Cc2c[nH]cn2)c1C` showed a logD of 2.5.
